Experimental data published in patent EP3952872B1, “CARBAMOYL CYCLOHEXANE DERIVATIVES FOR TREATING AUTISM SPECTRUM DISORDER” (Richter Gedeon Nyrt., priority 2019, dated 2020).
Entries after “also recorded” stand apart in the source; their conditions may differ. Where two headings read alike, the source gives them in different places.

Key:
[1] = target: T1, serotonin 5-HT1A receptor (Homo sapiens, UniProt P08908); conditions: cited from earlier work
T1 sequence (P08908 1-422): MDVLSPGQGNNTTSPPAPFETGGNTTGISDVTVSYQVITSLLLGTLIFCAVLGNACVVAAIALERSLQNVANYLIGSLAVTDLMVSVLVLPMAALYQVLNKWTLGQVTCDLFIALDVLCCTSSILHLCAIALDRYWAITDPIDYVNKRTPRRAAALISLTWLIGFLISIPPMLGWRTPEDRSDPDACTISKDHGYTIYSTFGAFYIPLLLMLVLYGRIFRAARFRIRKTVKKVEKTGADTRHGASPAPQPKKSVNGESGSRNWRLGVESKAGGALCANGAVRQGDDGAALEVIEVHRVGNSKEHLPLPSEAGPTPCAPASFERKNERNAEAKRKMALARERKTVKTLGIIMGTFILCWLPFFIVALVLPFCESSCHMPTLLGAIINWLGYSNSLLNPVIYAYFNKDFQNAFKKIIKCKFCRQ

[2] = tested on: prenatally valproate-treated rats; test: maternal deprivation-induced ultrasonic vocalization in rat pups, prenatal valproate model; type: in vivo, Wistar rats; conditions: acute p.o.; effect at 0.003, 0.03 and 0.1 mg/kg (0.01 mg/kg also tested); Figure 1
Method: Ultrasonic call counts are recorded for 10 min.

dopamine D2 receptor [3] = target: T2, dopamine D2 receptor (Homo sapiens, UniProt P14416); conditions: literature; cited from earlier work
[4] = tested on: prenatally valproate-treated rats; test: social play behavior, prenatal valproate model; type: in vivo, Wistar rats; conditions: p.o. daily for 8 days; 0.003-0.1 mg/kg, significant at 0.1 mg/kg; male offspring; Figure 3
Method: Offspring are housed according to standard laboratory conditions until time of behavioral testing. Animals are housed in groups of 4 in conventional cages and maintained at 22-24°C on a standard 12 hour light/dark cycle, with food and water available ad libitum. After investigational drug treatment, offspring are examined behaviorally in tests relevant for the assessment of autistic behavior. These tests include maternal deprivation-induced ultrasonic vocalization in rat pups, social play, social preference and the open field. […] At postnatal day 30, following 8 days treatment with the test compound, prenatally VPA-treated rats are evaluated for juvenile play behavior. The test is carried out in a novel test arena with pairs of animals from the same treatment group over a 15-min trial. Animals are scored for play activity measured by duration of social play behavior. Statistical analysis employs one-way ANOVA and the post hoc Dunnett test.

[5] = target: T3, serotonin 5-HT2B receptor (Homo sapiens, UniProt P41595); conditions: literature; cited from earlier work
[6] = tested on: prenatally valproate-treated rats; test: open field assay, prenatal valproate model; type: in vivo, Wistar rats; conditions: p.o. daily for 9 days, 0.003-0.1 mg/kg, male offspring
Method: Offspring are housed according to standard laboratory conditions until time of behavioral testing. Animals are housed in groups of 4 in conventional cages and maintained at 22-24°C on a standard 12 hour light/dark cycle, with food and water available ad libitum. After investigational drug treatment, offspring are examined behaviorally in tests relevant for the assessment of autistic behavior. These tests include maternal deprivation-induced ultrasonic vocalization in rat pups, social play, social preference and the open field. […] At postnatal day 31-32, animals are scored for locomotor activity and exploratory behavior in a 10-min trial in an open field test arena after 9-day oral treatment with the test compound. Activity is analysed for readouts of repetitive/stereotypic behaviors such as total distance moved and frequency of circling behavior. Statistical analysis employs one-way ANOVA and the post hoc Dunnett test.

[7] = target: T1, serotonin 5-HT1A receptor; conditions: Compound 2
[8] = target: T3, serotonin 5-HT2B receptor; test: serotonin 5-HT2B receptor affinity; type: binding
dopamine D2L receptor = dopamine D2L receptor (Homo sapiens, UniProt P14416); test: dopamine D2L receptor affinity; type: binding
[9] = target: T3, serotonin 5-HT2B receptor; test: functional activity at serotonin 5-HT2B receptor; type: biochemical; conditions: Compound 2
[10] = target: T1, serotonin 5-HT1A receptor; test: biochemical
dopamine D2S receptor = dopamine D2S receptor (Homo sapiens, UniProt P14416); test: dopamine D2S receptor affinity; type: binding
dopamine D2 receptor [11] = target: T2, dopamine D2 receptor; test: functional activity at dopamine D2 receptor; type: biochemical; conditions: Compound 2

T3 sequence (P41595 whole entry): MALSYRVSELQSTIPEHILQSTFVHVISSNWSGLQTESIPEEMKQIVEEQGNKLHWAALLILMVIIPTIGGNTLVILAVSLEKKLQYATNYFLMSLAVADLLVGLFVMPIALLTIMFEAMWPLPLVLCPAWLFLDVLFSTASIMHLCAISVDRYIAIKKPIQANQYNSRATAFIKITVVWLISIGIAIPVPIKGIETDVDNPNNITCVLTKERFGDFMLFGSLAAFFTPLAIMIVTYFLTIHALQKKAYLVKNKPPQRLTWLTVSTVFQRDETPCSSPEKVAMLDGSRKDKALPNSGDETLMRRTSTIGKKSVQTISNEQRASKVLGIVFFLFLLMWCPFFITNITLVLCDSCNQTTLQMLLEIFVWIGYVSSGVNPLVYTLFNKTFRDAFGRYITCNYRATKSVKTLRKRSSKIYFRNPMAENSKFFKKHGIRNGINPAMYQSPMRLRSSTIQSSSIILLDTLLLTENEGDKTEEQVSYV
T2 sequence (P14416 whole entry): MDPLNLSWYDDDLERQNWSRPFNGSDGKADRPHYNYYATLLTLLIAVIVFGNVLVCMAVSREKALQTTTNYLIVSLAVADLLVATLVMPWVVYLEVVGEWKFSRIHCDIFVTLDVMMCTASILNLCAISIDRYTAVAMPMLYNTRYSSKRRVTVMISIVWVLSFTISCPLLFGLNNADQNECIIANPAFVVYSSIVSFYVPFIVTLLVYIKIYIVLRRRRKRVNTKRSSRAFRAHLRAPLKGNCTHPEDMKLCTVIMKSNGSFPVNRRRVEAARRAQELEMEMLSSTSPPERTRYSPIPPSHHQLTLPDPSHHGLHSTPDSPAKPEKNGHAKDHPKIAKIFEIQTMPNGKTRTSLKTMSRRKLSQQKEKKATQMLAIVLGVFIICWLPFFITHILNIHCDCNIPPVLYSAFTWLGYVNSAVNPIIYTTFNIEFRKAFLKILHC
Chain of dopamine D2S receptor (P14416 1-414 isoform P14416-2): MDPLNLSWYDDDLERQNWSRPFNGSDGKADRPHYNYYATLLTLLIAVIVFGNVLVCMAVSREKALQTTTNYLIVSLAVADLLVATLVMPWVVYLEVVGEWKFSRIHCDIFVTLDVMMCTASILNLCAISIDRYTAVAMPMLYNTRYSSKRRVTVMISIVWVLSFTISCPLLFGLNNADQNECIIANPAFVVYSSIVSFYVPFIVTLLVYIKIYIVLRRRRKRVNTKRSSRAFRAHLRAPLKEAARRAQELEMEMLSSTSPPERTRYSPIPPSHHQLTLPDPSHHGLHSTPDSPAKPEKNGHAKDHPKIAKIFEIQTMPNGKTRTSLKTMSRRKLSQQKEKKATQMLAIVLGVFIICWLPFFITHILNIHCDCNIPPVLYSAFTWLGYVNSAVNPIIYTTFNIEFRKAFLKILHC
Chain of dopamine D2L receptor (P14416 whole entry): as the sequence (P14416 whole entry) above

CN(C)C(=O)N[C@H]1CC[C@H](CCN2CCN(c3cccc(Cl)c3Cl)CC2)CC1 [cariprazine, trans-N-[4-[2-[4-(2,3-dichlorophenyl)piperazin-1-yl]ethyl]cyclohexyl]-N',N'-dimethylurea]
intrinsic activity at the serotonin 5-HT1A receptor ([1]; literature (Heusler et al. 2016; Kiss et al. 2010)): 38%
functional character at the serotonin 5-HT1A receptor ([1]; literature): weak partial agonist
isolation-induced vocalizations (number of USV vocalizations) [2]: statistically significant; also recorded: fully reversed
functional character at the dopamine D2 receptor (dopamine D2 receptor [3]): partial agonist
social play deficit (time spent playing) [4]: statistically significant; also recorded: partially nevertheless, significantly reversed
functional character at the serotonin 5-HT2B receptor [5]: full antagonist
excessive motility / hyperactivity (distance travelled) ([6]; significant at 0.1 mg/kg, Figure 4): fully reversed
excessive circling behavior (number of 360-degree turns) ([6]; significant at all doses, Figure 5): statistically significant; also recorded: fully reversed

O=C(N[C@H]1CC[C@H](CCN2CCN(c3cccc(Cl)c3Cl)CC2)CC1)N1CCOCC1 [Compound 2, trans-N-(4-{2-[4-(2,3-dichloro-phenyl)-piperazine-1-yl]-ethyl}-cyclohexyl)-morpholine-4 carboxamide]
functional character at the serotonin 5-HT1A receptor [7]: weak partial agonist
Ki [8]: 1.11 nM
Ki (dopamine D2L receptor): 0.4 nM
functional character at the serotonin 5-HT2B receptor [9]: full antagonist
Ki [10]: 5.73 nM
Ki (dopamine D2S receptor): 0.52 nM
functional character at the dopamine D2 receptor (dopamine D2 receptor [11]): partial agonist
